Test results from patent publication US7943577B2, “Alpha-fetoprotein peptides and uses thereof” (Albany Medical College, priority 2001, dated 2011).

Legend:
[1] = system: LNCaP prostate carcinoma cells; assay: PCNA and nuclear ERα immunoblot, LNCaP; type: cell-based, human; parameters: key to Total Nuclear Estrogen Receptor / PCNA accumulation: “+” indicates increase; “−” indicates decrease; “NC” indicates no change
Description: (§1) Cell lines. Glioma cells: C6 cells were cultured in F-12K medium with 18% FBS. F98 cells and GL261 cells were cultured in DMEM with 10% FBS. Head and neck cancer: 22B cells were cultured in DMEM with 10% FBS. Papillary thyroid cancers: BHP2-7 cells and BHP18-21 cells were cultured in DMEM with 10% FBS. Small cell lung cancer: HTB184 cells were cultured in RPMI medium with 10% FBS. Breast cancers: MCF-7 cells were cultured in DMEM (w/o phenol red) with 5% FBS and MDA-MB cells were cultured in DMEM with 10% FBS. Colon cancer: Colo 205 cells were cultured in RPMI medium with 10% FBS. Ovarian cancer: OVCAR-3 cells were culture in RPMI medium with 20% FBS supplemented with insulin. Prostate cancers: LNCaP cells were cultured in RPMI medium with 10% FBS. DU145 cells were cultured in MEM with 10% FBS and PC3 cells were cultured in F-12 medium with 10% FBS. Cervical cancer: HeLa cells were cultured in MEM with 10% FBS. Melanoma cells were cultured in DMEM with 10% FBS. These conditions were determined to maintain cellular production of proliferating cell nuclear antigen (PCNA) at high levels immediately prior to study of AFP-related peptide. All cell cultures were maintained in a 5% CO2/95% O2 incubator at 37 C. Cell fractionation. Fractionation in a microfuge and preparation of nucleoproteins was by our previously reported methods (1-3). Nuclear extracts were prepared by resuspension of the crude nuclei in high salt buffer (hypotonic buffer with 420 mM NaCl and 20% glycerol) at 4° C. with rocking for 1 hr. The supernatants were collected after subsequent centrifugation at 4° C. and 13,000 rpm for 10 min. Immunoblotting. The techniques are standard and have been described in a number of our publications (1-3). In brief, nucleoproteins were separated on discontinuous SDS-PAGE and then transferred by electroblotting to nitocellulose membranes (Millipore, Bedford, Mass.). […] Immunoreactive proteins are detected by chemiluminescence.

[2] = system: HeLa cervical cancer cells; assay: PCNA and nuclear ERα immunoblot, HeLa; type: cell-based; parameters: key to Total Nuclear Estrogen Receptor / PCNA accumulation: “+” indicates increase; “−” indicates decrease; “NC” indicates no change
Description: as §1

[3] = system: MAPK activation and ER phosphorylation in T47-D human breast cancer cells; assay: E2-induced MAPK activation and ER serine-118 phosphorylation in T47-D cells; type: cell-based; settings: E2 10^−8M, 60 m
Description: Cells were treated with E2 for 60 m and lysed. The nuclear fraction was isolated, separated by gel electrophoresis of the nucleoproteins, and the proteins were transferred to membranes. The resolved nucleoproteins were immunoblotted with anti-phosphoMAPK (activated MAPK, pMAPK) and anti-phosphoER (pER.) The anti-pER is directed to ER's serine-118. The peptides of the invention, at, e.g., […], blocks MAPK E2 activation and E2-induced ER phosphorylation. However, there is no enhancement by E2 of either MAPK activation or ER phosphorylation when E2 is added with the peptides of the invention. It has been shown by Lobehofer et al. (Cell Growth Differ 11: 99-110 (2000)) that pharmacological inhibition of MAPK prevents E2-induced mitogenesis in human breast cancer cell line (MCF-7). Therefore, the peptides of the invention block ER phosphorylation, a step which is required for full transcriptional activity of ER, and as such, the peptides of the invention are useful anti-cancer, e.g., breast cancer, agents.
The inventors, while not wishing to be limited to a particular method or theory of how the present invention operates, have performed experiments using T-47D cells cultured with estradiol plus peptides of the invention, estradiol alone, peptide alone, or no additives (control). […] There was a corresponding reduction in the phosphorylation of serine 118 on the estrogen receptor. […]

GL261 glioma cells = assay: PCNA and nuclear ERα immunoblot, GL261; type: cell-based, murine; parameters: key to Total Nuclear Estrogen Receptor / PCNA accumulation: “+” indicates increase; “−” indicates decrease; “NC” indicates no change
Description: as §1

melanoma cells = assay: PCNA and nuclear ERα immunoblot, melanoma; type: cell-based, human; parameters: key to Total Nuclear Estrogen Receptor / PCNA accumulation: “+” indicates increase; “−” indicates decrease; “NC” indicates no change
Description: Cell lines. Glioma cells: C6 cells were cultured in F-12K medium with 18% FBS. F98 cells and GL261 cells were cultured in DMEM with 10% FBS. Head and neck cancer: 22B cells were cultured in DMEM with 10% FBS. Papillary thyroid cancers: BHP2-7 cells and BHP18-21 cells were cultured in DMEM with 10% FBS. Small cell lung cancer: HTB184 cells were cultured in RPMI medium with 10% FBS. Breast cancers: MCF-7 cells were cultured in DMEM (w/o phenol red) with 5% FBS and MDA-MB cells were cultured in DMEM with 10% FBS. Colon cancer: Colo 205 cells were cultured in RPMI medium with 10% FBS. Ovarian cancer: OVCAR-3 cells were culture in RPMI medium with 20% FBS supplemented with insulin. Prostate cancers: LNCaP cells were cultured in RPMI medium with 10% FBS. DU145 cells were cultured in MEM with 10% FBS and PC3 cells were cultured in F-12 medium with 10% FBS. Cervical cancer: HeLa cells were cultured in MEM with 10% FBS. Melanoma cells were cultured in DMEM with 10% FBS. These conditions were determined to maintain cellular production of proliferating cell nuclear antigen (PCNA) at high levels immediately prior to study of AFP-related peptide. All cell cultures were maintained in a 5% CO2/95% O2 incubator at 37 C. Cell fractionation. Fractionation in a microfuge and preparation of nucleoproteins was by our previously reported methods (1-3). Nuclear extracts were prepared by resuspension of the crude nuclei in high salt buffer (hypotonic buffer with 420 mM NaCl and 20% glycerol) at 4° C. with rocking for 1 hr. The supernatants were collected after subsequent centrifugation at 4° C. and 13,000 rpm for 10 min. Immunoblotting. The techniques are standard and have been described in a number of our publications (1-3). In brief, nucleoproteins were separated on discontinuous SDS-PAGE and then transferred by electroblotting to nitocellulose membranes (Millipore, Bedford, Mass.). After blocking with 5% milk in Tris-buffered saline containing 0.1% Tween, the membranes were incubated with either mouse anti-human PCNA (Santa Cruz Biotech., Santa Cruz, Calif.) or mouse anti-human ER antibody (Santa Cruz) overnight. Secondary antibody was rabbit anti-mouse IgG (1:1000)(Dako), depending upon the origin of the primary antibody. Immunoreactive proteins are detected by chemiluminescence.

With C[C@]12CC[C@@H]3c4ccc(O)cc4CC[C@H]3[C@@H]1CC[C@@H]2O [E2, 17β-estradiol] the PCNA accumulation ([1]; LNCaP (Prostate Cancer)) was “+”, the “Total Nuclear Estrogen Receptor” value ([1]; LNCaP (Prostate Cancer)) was “NC” and the “nuclear ERα” value ([1]; LNCaP, 10^−9 M E2 or 10^−6 M AFP-peptide, 24 h) was “did not increase nuclear accumulation of ERα”. For the same compound, the PCNA accumulation ([2]; HeLa (Cervical Cancer)) was “+”, the “Total Nuclear Estrogen Receptor” value ([2]; HeLa (Cervical Cancer)) was “+” and the “nuclear ERα” value ([2]; HeLa, 10^−9M E2 or 10^−7 M AFP-peptide, 24 h) was “Neither E2 or AFP-peptide decreased nuclear accumulation of ERα”. For the same compound, the “MAPK activation (pMAPK) and ER serine phosphorylation (pER), nuclear fraction immunoblot” value [3] was “activates MAPK, e.g., in T47-D human breast cancer cells and serine-phosphorylates ER”, the PCNA accumulation (GL261 glioma cells; GL261 (Glioma)) was “−” and the “Total Nuclear Estrogen Receptor” value (GL261 glioma cells; GL261 (Glioma)) was “+”. For the same compound, the “nuclear ERα” value (GL261 glioma cells; GL261, 10^−9 M E2 or 10^−6 M AFP-peptide, 24 h) was “increased nuclear accumulation of ERα”, the PCNA accumulation (melanoma cells; Melanoma (Skin Cancer)) was “−” and the “Total Nuclear Estrogen Receptor” value (melanoma cells; Melanoma (Skin Cancer)) was “−”. The “nuclear ERα” value (melanoma cells; melanoma, 10^−9 M E2 or 10^−6M AFP-peptide, 24 h) was “decrease nuclear ERα accumulation” and the PCNA accumulation (melanoma cells; melanoma, AFP-peptide 10^−9 to 10^−7 M (left panel), 10^−9 M E2 or 10^−6M AFP-peptide (right panel), 24 h) was “reduce PCNA”.
